{
  "source": "patent US20230339983A1",
  "about": "“FLUORESCENT COMPOUNDS SPECIFIC FOR PLURIPOTENT STEM CELLS AND REPROGRAMMING-READY CELLS AND METHODS OF USING THE SAME” (Agency for Science, Technology and Research, priority 2018, published 2023)",
  "key": {"[1]": {"system": "reprogramming DPSCs", "assay": "Staining of DPSCs reprogrammed with retroviral Yamanaka factors on MEF", "assay_type": "cell-based, human", "conditions": "retroviral OCT4, SOX2, KLF4, C-MYC", "text": "iPS cells were also generated from DPSCs with the traditional protocol involving retroviral vectors expressing OCT4, SOX2, KLF4, and C-MYC (Sugii, et al. (2011). Nature Protoc 6(3):346-358). BJ human neonatal fibroblasts were reprogrammed using lentiviral OCT4, SOX2, KLF4, and C-MYC as described previously (Toh, et al. (2016). Cell Rep 15(12):2597-2607).\nWe also tested whether BDL-E5 worked for commonly used reprogramming methods and cell type. DPSCs were infected with retroviral vectors expressing four Yamanaka factors, and plated onto MEF. […] In addition, BJ human fibroblasts were reprogrammed with lentiviral Yamanaka factors."}, "[2]": {"system": "reprogramming (RP) versus non-reprogramming (non-RP) DPSCs (DPSC1)", "assay": "Signal-to-noise comparison of reprogramming versus non-reprogramming cells", "assay_type": "cell-based, human", "procedure": "FIG. 14: (A) Graph representing signal-to-noise ratios (arbitrary fluorescence units) on comparing reprogramming (RP) versus non-reprogramming (non-RP) DPSCs (DPSC1) stained with either CDy1 or BDL-E5. The fluorescence intensity was measured using ImageJ software. 100 cells per field (10×), 10 fields per well, 3 wells per probe were measured. […] denotes significance between RP and non-RP cells. (B) Proliferation assay of DPSC1 incubated with BDL-E5 (500 nM) for 2 to 5 days; represented as number of viable cells per cm^2 (n=3). (C) Proliferation assay of reprogramming DPSC1, 48 h after transfection with Scr CREB1, CREB1 OE or siCREB1; represented as number of viable cells per cm^2 (n=3)."}},
  "data": [
    {"smiles": "COc1cc(F)c(/C=C/c2cc(C)c3n2[B-](F)(F)[N+]2=C(CCC(=O)NCCN(C)C)C=CC2=C3)cc1OC", "note": "[BDL-E5]", "values": [
      {"measurement": "earliest time of staining of reprogramming cells", "setting": "[1]", "result": 7, "unit": "dpi"},
      {"measurement": "signal toward reprogramming cells and background staining against non-reprogramming cells", "setting": "[2]", "result": "low non-specific staining against non-reprogramming cells"}
    ]}
  ]
}
